Like-named read-outs stand apart in the source and are kept apart here.
Key:
EeAChE PAS = molecular target: T1, EeAChE PAS (Electrophorus electricus, UniProt O42275); test: biochemical; assay type: binding; settings: for inhibition at 3 µM: read-out: PI Displacement, 3 µM; for inhibition at 20 µM: read-out: PI Displacement, 20 µM
T1 construct: purchased Sigma-Aldrich type VI-S
Description: PIand donepezil were purchased from Sigma-Aldrich. […] As the source of the enzyme, electric eel (Elecrophorus electricus) AChE (EeAChE, type VI-S, lyophilized powder, Sigma-Aldrich, Saint Louis, MO, USA) was used. The applicability of this enzyme was shown earlier
To determine the percentage of displacement of PI from the EeAChE PAS, EeAChE (with a final concentration of 7 μM) was incubated with the test compound at a concentration of 3 and 20 μM in 1 mM Tris-HCl buffer pH 8.0, 25 °C for 15 min. Next, PIsolution (with a final concentration of 8 μM) was added, the samples were incubated for 15 min, and the fluorescence spectrum (530 nm (exc.) and 600 nm (emiss.)) was taken. Donepezil and decamethonium were used as reference compounds. The blank contained PI of the same concentration in 1 mM Tris-HCl buffer pH 8.0. The measurements were carried out in triplicate on a FLUOStar Optima microplate reader).
The percentage of displacement of PIfrom the peripheral anionic site of AChE was calculated using the following formula:% Displacement = 100 − (IFAChE+Propidium+inhibitor/IFAChE+Propidium) × 100,(1) where IFAChE+Propidium is the fluorescence intensity of the propidium associated with AChE in the absence of the test compound (taken as 100%) and IFAChE+Propidium+inhibitor is the fluorescence intensity of the propidium associated with AChE in the presence of the test compound.

[1] = system: Fe3+-induced LP in rat brain homogenate; test: Fe3+-induced lipid peroxidation in rat brain homogenate; assay type: biochemical; settings: for Pro-oxidant activity in rat brain homogenate: 10 nM to 30 µM; for IC50: LP induced by 0.5 mM Fe3+ in rat brain homogenate, mean ± SD, read-out: Inhibition of LP IC50
Description: The influence of MB and its conjugates with indole derivatives on Fe^3+-induced lipid peroxidation (LP) in rat brain homogenate was studied over a broad concentration range (from 10 nM to 30 µM).
On the day of the experiment, adult Wistar male rats that fasted overnight were euthanized in a CO2 chamber, followed by decapitation. The procedure was in compliance with the Guidelines for Animal Experiments at the Institute of Physiologically Active Compounds of the Russian Academy of Sciences. The brains were rapidly removed and homogenized in 0.12 M HEPES/0.15M NaCl, pH 7.4 buffer (HBS) ([…]) and used immediately for the assay.
The protein concentrations in rat brain homogenate (RBH) were determined by the biuret assay using bovine serum albumin as the standard.
The effect of the compounds on LP of the RBH was studied at […] in 0.25 mL of RBH (2 mg of protein·mL^−1) in the presence of the compounds or the vehicle (DMSO). Lipid peroxidation was induced by Fe^3+ (0.5 mM Fe(NH4)(SO4)2) as an oxidant.
The reaction mixture was incubated for 30 min at 37 °C, then quenched by adding 0.4 mL of quench medium containing 250 mM HCl and 15% (w/v) trichloroacetic acid. The samples were then centrifuged for 10 min at 10,000× g, and 75 µL of the supernatant was transferred to a 96-well plate. Next, 75 µL of 0.8% (w/v) 2-thiobarbituric acid (TBA) was added. The plate was then sealed, heated at 95 °C for 15 min, cooled to 4 °C, and the absorbance at 530–620 nm was measured using a Wallac Victor 3 1420 Multilabel Counter (Perkin Elmer, Turku, Finland).
All the experiments were performed as four independent runs with different brain homogenate preparations and three repeated probes in each run. The average results for each run were normalized between the positive control with the vehicle and Fe^3+ and negative control with only the vehicle. They were presented as the IC50 ± SD values for the antioxidant activities of the compounds which were calculated using GraphPad Prism 7.00 software (San Diego, CA, USA).

[2] = system: isolated rat liver mitochondria; test: Bypass of rotenone (complex I) inhibition, mitochondrial repolarization; assay type: biochemical; settings: mitochondria energized by glutamate/malate, rotenone added
Description: The ability to bypass complex I inhibition was determined for MB, its reduced form MBH2, and compound 4i (Figure 4).
The addition of rotenone to mitochondria energized by complex I substrates (glutamate/malate) causes considerable depolarization.
(§1) Safranine O (10 µM) was used as a membrane potential probe. Fluorescence intensity at 580 nm (excitation at 520 nm) was measured with a Wallac Victor 3 1420 Multilabel Counter (Perkin Elmer, Turku, Finland). The mitochondrial protein concentration was 0.2 mg/mL. The medium for measurements contained 75 mM sucrose, 225 mM mannitol, 10 mM K-HEPES (pH 7.4), 0.02 mM EGTA, and 1 mM KH2PO4. After a 5-min incubation, 5 mM glutamate/malate or 5 mM succinate in the presence of 0.5 µM rotenone were added to produce the mitochondrial potential. Then, the compounds (30 µM) or the same volume of the vehicle (DMSO) were injected into the mitochondrial suspension. After 15–20 min, 12.5 µM CaCl2 was added to each sample to induce the depolarization of mitochondria, and after 5 min, 0.5 µM CCCP was added for maximum depolarization of the mitochondria. The level of depolarization (ΔΨm) was calculated using the fluorescence value after 10-min incubation with 30 µM of compounds (or vehicle) normalized between the fluorescence measurements after substrate and CCCP addition, where fluorescence intensity at 580 nm was 100% after substrate addition and was 0% after CCCP addition.

[3] = system: isolated rat liver mitochondria; test: Mitochondrial membrane potential and calcium-induced depolarization (safranine O); assay type: biochemical; settings: for Effect on calcium-induced mitochondrial depolarization at 30 μM: 12.5 µM CaCl2; for ΔΨm, CI (g/m) / ΔΨm, CII (s/r): depolarization after 10-min incubation with 30 µM compound, mean ± SD; for ΔΨm, CI (g/m): complex I substrates (glutamate, malate); for ΔΨm, CII (s/r): complex II substrate (succinate) in the presence of rotenone
Description: The primary screening of new compounds to determine their effect on the mitochondrial membrane potential formed due to respiratory chain (RC) activity after additions of RC substrates was performed on isolated rat liver mitochondria. It can be used to estimate the probability of the potential toxicity of these compounds. Furthermore, the influence of the compounds on the calcium-dependent depolarization of isolated rat liver mitochondria in this assay made it possible to evaluate the effect on the mitochondrial permeability transition.
Rat liver mitochondria were isolated by conventional differential centrifugation from the livers of adult Wistar strain rats that fasted overnight, pH 7.6 [83, 84]. The mitochondrial protein concentration was determined using a biuret procedure with bovine serum albumin as the standard.
as §1

AChE = AChE (Homo sapiens, UniProt P22303); test: Kinetic analysis of AChE inhibition, steady-state inhibition constants; assay type: biochemical; settings: for AChE inhibition constant αKi (noncompetitive component) / Ki: Lineweaver–Burk analysis; for Ki: read-out: AChE inhibition constant Ki (competitive component); for Mechanism of AChE inhibition: Lineweaver–Burk double reciprocal plot
Description: . The results were analyzed using the Lineweaver–Burk double reciprocal plot, and the graphical analysis of the kinetic data is shown in Figure 1. […]. To elucidate the inhibition mechanisms for the active compounds, the residual activity of AChE was determined in the presence of three increasing concentrations of the test compounds and six decreasing concentrations of the substrates. The test compounds were preincubated with the enzyme at 25 °C for 5 min, followed by the addition of the substrates. Parallel controls were made for an assay of the rate of hydrolysis of the same concentrations of substrates in the solutions with no inhibitor. The kinetic parameters of substrate hydrolysis were determined. Measurements were performed with a FLUOStar Optima microplate reader. Each experiment was performed in triplicate.

[4] = compound 3 µM, EeAChE 7 µM, PI 8 µM, means ± SEM (n = 3)
[5] = compound 20 µM, EeAChE 7 µM, PI 8 µM, means ± SEM (n = 3)

Sequence of AChE (P22303 32-588 isoform P22303-2): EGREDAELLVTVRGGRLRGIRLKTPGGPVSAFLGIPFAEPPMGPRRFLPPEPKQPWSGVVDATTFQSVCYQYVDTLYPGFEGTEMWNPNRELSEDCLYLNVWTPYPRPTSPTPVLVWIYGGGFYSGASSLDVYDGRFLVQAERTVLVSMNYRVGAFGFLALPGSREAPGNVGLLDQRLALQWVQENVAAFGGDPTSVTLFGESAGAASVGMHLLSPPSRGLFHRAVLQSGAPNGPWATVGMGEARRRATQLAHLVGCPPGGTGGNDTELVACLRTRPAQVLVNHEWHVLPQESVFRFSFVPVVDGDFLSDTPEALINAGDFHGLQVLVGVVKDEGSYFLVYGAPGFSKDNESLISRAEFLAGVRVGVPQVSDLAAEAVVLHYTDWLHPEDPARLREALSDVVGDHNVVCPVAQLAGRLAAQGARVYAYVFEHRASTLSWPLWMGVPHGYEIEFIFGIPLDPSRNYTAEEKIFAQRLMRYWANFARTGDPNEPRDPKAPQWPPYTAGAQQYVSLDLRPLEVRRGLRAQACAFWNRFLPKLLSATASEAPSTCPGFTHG
T1 sequence (O42275 24-633): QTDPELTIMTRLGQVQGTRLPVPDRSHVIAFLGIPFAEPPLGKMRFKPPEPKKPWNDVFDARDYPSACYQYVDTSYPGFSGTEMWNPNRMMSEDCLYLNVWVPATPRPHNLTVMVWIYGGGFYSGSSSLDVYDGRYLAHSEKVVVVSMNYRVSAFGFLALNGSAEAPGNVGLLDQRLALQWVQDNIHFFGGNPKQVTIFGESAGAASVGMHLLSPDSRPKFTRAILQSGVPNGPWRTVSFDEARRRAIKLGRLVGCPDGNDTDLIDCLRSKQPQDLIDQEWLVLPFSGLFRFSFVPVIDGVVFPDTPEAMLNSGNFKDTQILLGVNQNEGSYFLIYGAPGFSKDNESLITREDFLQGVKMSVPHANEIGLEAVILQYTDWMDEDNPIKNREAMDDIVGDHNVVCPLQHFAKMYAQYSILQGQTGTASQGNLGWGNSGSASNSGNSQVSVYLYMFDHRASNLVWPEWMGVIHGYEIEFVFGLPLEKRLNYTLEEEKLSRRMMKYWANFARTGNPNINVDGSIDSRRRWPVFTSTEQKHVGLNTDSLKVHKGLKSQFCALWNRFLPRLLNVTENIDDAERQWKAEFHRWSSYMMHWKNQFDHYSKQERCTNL

Compound | inhibition at 3 µM (EeAChE PAS) [%] | inhibition at 20 µM (EeAChE PAS) [%] | Pro-oxidant activity in rat brain homogenate [1] | IC50 [1] [nM] | Repolarization of rotenone-depolarized mitochondria (bypass of complex I inhibition) [2] | Effect on calcium-induced mitochondrial depolarization at 30 μM [3] | ΔΨm, CI (g/m) [3] [%] | ΔΨm, CII (s/r) [3] [%] | inhibition at 3 µM (EeAChE PAS; [4]) [%] | inhibition at 20 µM (EeAChE PAS; [5]) [%] | AChE inhibition constant αKi (noncompetitive component) (AChE) [µM] | Ki (AChE) [nM] | Mechanism of AChE inhibition (AChE) | PI Displacement, 3 µM (EeAChE PAS; [4]) [%] | PI Displacement, 20 µM (EeAChE PAS; [5]) [%]
CN(C)c1ccc2nc3ccc(=[N+](C)C)cc-3sc2c1 [MB, Methylene blue, reference compound] | 20.9 ± 1.9 | 40.8 ± 3.7 | no pro-oxidant activity | 1900 ± 500 | concentration-dependent repolarization | completely suppress | 14 ± 7 | 40 ± 9 | – | – | – | – | – | – | –
CN(C)c1ccc2c(c1)Sc1cc(N(C)C)ccc1N2C(=O)CCn1c2c(c3cc(F)ccc31)CCCC2 [Compound 4f] | – | – | – | 600 ± 320 | – | – | 27 ± 1 | 47 ± 1 | 14.4 ± 0.8 | 31.9 ± 1.4 | – | – | – | – | –
Cc1ccc2c(c1)c1c(n2CCC(=O)N2c3ccc(N(C)C)cc3Sc3cc(N(C)C)ccc32)CCCC1 [Compound 4c] | – | – | – | 780 ± 350 | – | – | 29 ± 1 | 50 ± 3 | 14.9 ± 1.1 | 31.8 ± 0.9 | 5.83 ± 0.31 | 1980 ± 170 | mixed type inhibition | – | –
Cc1ccc2c(c1)c1c(n2CCC(=O)N2c3ccc(N(C)C)cc3Sc3cc(N(C)C)ccc32)CCCCC1 [Compound 4k] | – | – | – | 820 ± 680 | – | – | 6 ± 3 | 62 ± 1 | 12.1 ± 0.8 | 15.8 ± 0.7 | – | – | – | – | –
COc1ccc2c(c1)c1c(n2CCC(=O)N2c3ccc(N(C)C)cc3Sc3cc(N(C)C)ccc32)CCCC1 [Compound 4d] | – | – | – | 1120 ± 620 | – | – | 30 ± 4 | 53 ± 1 | 13.4 ± 0.9 | 28 ± 1.5 | – | – | – | – | –
CN(C)c1ccc2c(c1)Sc1cc(N(C)C)ccc1N2C(=O)CCn1c2c(c3cc(OC(F)(F)F)ccc31)CCCC2 [Compound 4h] | – | – | – | 460 ± 320 | – | considerably decrease | 15 ± 2 | 25 ± 1 | 19.1 ± 1.1 | 33.8 ± 0.4 | – | – | – | – | –
CN(C)c1ccc2c(c1)Sc1cc(N(C)C)ccc1N2C(=O)CCn1c2c(c3ccccc31)CCCCCC2 [Compound 4m] | – | – | – | 1520 ± 790 | – | – | 23 ± 9 | 57 ± 6 | 17.3 ± 1.2 | 37.4 ± 0.8 | 4.03 ± 0.15 | 1060 ± 40 | mixed type inhibition | – | –
CN(C)c1ccc2c(c1)Sc1cc(N(C)C)ccc1N2C(=O)CCn1c2c(c3ccccc31)CCCC2 [Compound 4b] | – | – | – | 1120 ± 630 | – | – | 20 ± 1 | 42 ± 2 | 12.6 ± 0.7 | 27.9 ± 1.1 | – | – | – | – | –
CN(C)c1ccc2c(c1)Sc1cc(N(C)C)ccc1N2C(=O)CCn1c2c(c3ccccc31)CCCCC2 [Compound 4j] | – | – | – | 620 ± 370 | – | – | 21 ± 9 | 66 ± 1 | 10.3 ± 0.9 | 23.8 ± 1.1 | – | – | – | – | –
Cc1ccc2c(c1)c1c(n2CCC(=O)N2c3ccc(N(C)C)cc3Sc3cc(N(C)C)ccc32)CCCCCC1 [Compound 4n] | – | – | – | 930 ± 680 | – | – | 23 ± 6 | 65 ± 1 | 16.7 ± 1.2 | 28.3 ± 1.2 | – | – | – | – | –
CN(C)c1ccc2c(c1)Sc1cc(N(C)C)ccc1N2C(=O)CCn1c2c(c3ccccc31)CCC2 [Compound 4a] | – | – | – | 1240 ± 720 | – | – | 8 ± 1 | 58 ± 1 | 12 ± 0.5 | 20.9 ± 0.8 | – | – | – | – | –
COc1ccc2c(c1)c1c(n2CCC(=O)N2c3ccc(N(C)C)cc3Sc3cc(N(C)C)ccc32)CCC(C)C1 (stereo not drawn) [Compound 4e] | – | – | – | 500 ± 360 | – | – | 33 ± 1 | 50 ± 1 | 14.8 ± 0.7 | 23 ± 1.3 | – | – | – | – | –
CN(C)c1ccc2c(c1)Sc1cc(N(C)C)ccc1N2 [MBH2, reference compound] | – | – | no pro-oxidant activity | 530 ± 230 | concentration-dependent repolarization | – | 0 | 18.2 ± 1.1 | – | – | – | – | – | 17.7 ± 1.8 | 36.9 ± 3.3
CC1CCc2c(c3cc(OC(F)(F)F)ccc3n2CCC(=O)N2c3ccc(N(C)C)cc3Sc3cc(N(C)C)ccc32)C1 (stereo not drawn) [Compound 4i] | – | – | – | 580 ± 260 | exhibits this type of activity only in a 10 µM concentration | completely suppress | 6 ± 3 | 18 ± 2 | 20.4 ± 1.8 | 32.5 ± 0.5 | 3.19 ± 0.10 | 1120 ± 50 | mixed type inhibition | – | –

Source: paper PMC9697446 (International Journal of Molecular Sciences, 2022)
